Data reported in ChEMBL document CHEMBL5584354, “Impact of Conjugation of the Reactive Oxygen Species (ROS)-Generating Catalytic Moiety with Membrane-Active Antimicrobial Peptoids: Promoting Multitarget Mechanism and Enhancing Selectivity” (J Med Chem, 2024).
≈ marks a conversion by molar mass, not a printed value. Non-standard residues stand in square brackets, D forms with d. Residues, ends and D or L forms follow the SMILES beside them. *: point of attachment. X3 = NC(=O)[C@H](Cc1c[nH]cn1)NC(=O)CNC(=O)[C@@H](N)CN(CCc1c[nH]c2ccccc12)*; X1 = NC(=O)[C@H](Cc1c[nH]cn1)NC(=O)CNC(=O)[C@@H](N)CN*; Gly(N(CH2)2(3-indolyl)) = O=C(O)CNCCc1c[nH]c2ccccc12; Nspe = C[C@H](NCC(=O)O)c1ccccc1; Nphe = O=C(O)CNCc1ccccc1; Nlys = NCCCCNCC(=O)O

Key:
[1] = Hemolytic activity in male Sprague-Dawley rat erythrocytes assessed as concentration required for 50% hemolysis incubated for 1 hr by absorbance based method; assay type: toxicity, cell-based, Erythrocyte
[2] = Hemolytic activity in male Sprague-Dawley rat erythrocytes at 50 uM incubated for 1 hr by absorbance based method relative to control; assay type: toxicity, cell-based, Erythrocyte; conditions: read-out: Activity
[3] = Hemolytic activity in male Sprague-Dawley rat erythrocytes at 25 uM incubated for 1 hr by absorbance based method relative to control; assay type: toxicity, cell-based, Erythrocyte; conditions: read-out: Activity
Escherichia coli = test: Antibacterial activity against Escherichia coli ATCC 25922 assessed as inhibition of bacterial growth incubated for 24 hrs by broth dilution method; assay type: functional
Staphylococcus aureus = test: Antibacterial activity against Staphylococcus aureus ATCC 25923 assessed as inhibition of bacterial growth incubated for 24 hrs by broth dilution method; assay type: functional
[4] = Selectivity index, ratio of HC10 for hemolytic activity in male Sprague-Dawley rat erythrocytes to MIC for antibacterial activity against Escherichia coli ATCC 25922; assay type: toxicity; conditions: read-out: Selectivity Index
[5] = Hemolytic activity in male Sprague-Dawley rat erythrocytes at 100 uM incubated for 1 hr by absorbance based method relative to control; assay type: toxicity, cell-based, Erythrocyte; conditions: read-out: Activity
Erythrocyte = test: Hemolytic activity in male Sprague-Dawley rat erythrocytes assessed as concentration required for 10% hemolysis incubated for 1 hr by absorbance based method; assay type: toxicity, cell-based

SMILES | MIC (Escherichia coli) [µM] | MIC (Staphylococcus aureus) [µM] | HC50 at 1 h [1] [µM] | hemolysis at 1 h, 50 µM [2] [%] | hemolysis at 1 h, 25 µM [3] [%] | selectivity ratio [4] | hemolysis at 1 h, 100 µM [5] [%] | HC10 (Erythrocyte) [µM]
C[C@@H](c1ccccc1)N(CC(=O)NC[C@H](N)C(=O)NCC(=O)N[C@@H](Cc1c[nH]cn1)C(N)=O)C(=O)CN(CCCCN)C(=O)CN(CCCCN)C(=O)CN(C(=O)CN(C(=O)CN(CCCCN)C(=O)CN(C(=O)CN(C(=O)CN(CCCCN)C(=O)CN(CCc1c[nH]c2ccccc12)C(=O)CN(CCc1c[nH]c2ccccc12)C(=O)CNCCCCN)[C@@H](C)c1ccccc1)[C@@H](C)c1ccccc1)[C@@H](C)c1ccccc1)[C@@H](C)c1ccccc1 (H-[Nlys][Gly(N(CH2)2(3-indolyl))][Gly(N(CH2)2(3-indolyl))][Nlys][Nspe][Nspe][Nlys][Nspe][Nspe][Nlys][Nlys][Nspe]-X1) | > 25 | 6.3 (≈ 13.5 µg/mL) | > 100 | 6.1 | 4.93 |  | 5.26 | > 100
C[C@@H](c1ccccc1)N(CC(=O)N(CCCCN)CC(=O)N(CC(=O)N(CC(=O)N(CCCCN)CC(=O)N(CC(=O)N(CC(=O)N(CCCCN)CC(=O)N(CC(=O)N(CC(N)=O)Cc1ccccc1)Cc1ccccc1)Cc1ccccc1)Cc1ccccc1)Cc1ccccc1)Cc1ccccc1)C(=O)CN(Cc1ccccc1)C(=O)CN(CCCCN)C(=O)[C@H](Cc1c[nH]cn1)NC(=O)CNC(=O)CN (H-GGH[Nlys][Nphe][Nspe][Nlys][Nphe][Nphe][Nlys][Nphe][Nphe][Nlys][Nphe][Nphe]-NH2) | 25 (≈ 49.3 µg/mL) | > 25 | > 100 | -0.22 | -0.71 |  | 0.92 | > 100
C[C@@H](c1ccccc1)N(CC(=O)N(CC(=O)N(CCCCN)CC(=O)N(CC(=O)N(CC(=O)N(CCCCN)CC(=O)N(CC(=O)N(CC(=O)N(CCCCN)CC(=O)N(CC(=O)N(CC(N)=O)Cc1ccccc1)Cc1ccccc1)Cc1ccccc1)Cc1ccccc1)Cc1ccccc1)Cc1ccccc1)Cc1ccccc1)C(=O)CN(CCCCN)C(=O)CNC(=O)[C@H](Cc1c[nH]cn1)NC(=O)CNC(=O)CN (H-GGHG[Nlys][Nspe][Nphe][Nlys][Nphe][Nphe][Nlys][Nphe][Nphe][Nlys][Nphe][Nphe]-NH2) | 25 (≈ 50.7 µg/mL) | > 25 | > 100 | 0.18 | -0.43 |  | 1.36 | > 100
C[C@@H](c1ccccc1)N(CC(=O)N(CCCCN)CC(=O)N(CC(=O)N(CC(=O)N(CCCCN)CC(=O)N(CC(=O)N(CC(=O)N(CCCCN)CC(=O)N(CC(=O)N(CC(N)=O)Cc1ccccc1)Cc1ccccc1)Cc1ccccc1)Cc1ccccc1)Cc1ccccc1)Cc1ccccc1)C(=O)CN(Cc1ccccc1)C(=O)CNCCCCN (H-[Nlys][Nphe][Nspe][Nlys][Nphe][Nphe][Nlys][Nphe][Nphe][Nlys][Nphe][Nphe]-NH2) | 12.5 (≈ 21.5 µg/mL) | 6.3 (≈ 10.8 µg/mL) | > 100 | 3.75 | 0.21 | 6.5 | 13.7 | 81.3
C[C@@H](c1ccccc1)N(CC(=O)N(CCCCN)CC(=O)N(CCc1c[nH]c2ccccc12)CC(=O)N(CCc1c[nH]c2ccccc12)CC(=O)NC[C@H](N)C(=O)NCC(=O)N[C@@H](Cc1c[nH]cn1)C(N)=O)C(=O)CN(CCCCN)C(=O)CN(CCCCN)C(=O)CN(C(=O)CN(C(=O)CN(CCCCN)C(=O)CN(C(=O)CN(C(=O)CNCCCCN)[C@@H](C)c1ccccc1)[C@@H](C)c1ccccc1)[C@@H](C)c1ccccc1)[C@@H](C)c1ccccc1 (H-[Nlys][Nspe][Nspe][Nlys][Nspe][Nspe][Nlys][Nlys][Nspe][Nlys][Gly(N(CH2)2(3-indolyl))][Gly(N(CH2)2(3-indolyl))]-X1) | > 25 | 6.3 (≈ 13.5 µg/mL) | > 100 | 4.23 | 3.83 |  | 3.38 | > 100
C[C@@H](c1ccccc1)N(CC(=O)N(CCCCN)CC(=O)N(CC(=O)N(CC(=O)N(CCCCN)CC(=O)N(CC(=O)N(CC(=O)NC[C@H](N)C(=O)NCC(=O)N[C@@H](Cc1c[nH]cn1)C(N)=O)Cc1ccccc1)Cc1ccccc1)[C@@H](C)c1ccccc1)[C@@H](C)c1ccccc1)C(=O)CN(C(=O)CN(CCCCN)C(=O)CN(Cc1ccccc1)C(=O)CN(Cc1ccccc1)C(=O)CNCCCCN)[C@@H](C)c1ccccc1 (H-[Nlys][Nphe][Nphe][Nlys][Nspe][Nspe][Nlys][Nspe][Nspe][Nlys][Nphe][Nphe]-X1) | > 25 | 25 (≈ 51.1 µg/mL) | > 100 | 2.32 | 0.66 |  | 7.73 | > 100

Now from value to compound, other results behind:

MIC (Escherichia coli) [µM] | MIC (Staphylococcus aureus) [µM] | SMILES | HC50 at 1 h [1] [µM] | hemolysis at 1 h, 50 µM [2] [%] | hemolysis at 1 h, 25 µM [3] [%] | selectivity ratio [4] | hemolysis at 1 h, 100 µM [5] [%] | HC10 (Erythrocyte) [µM]
6.3 (≈ 10.4 µg/mL) | 1.6 (≈ 2.65 µg/mL) | C[C@@H](c1ccccc1)N(CC(N)=O)C(=O)CN(CCCCN)C(=O)CN(C(=O)CN(C(=O)CN(CCCCN)C(=O)CN(C(=O)CN(C(=O)CN(CCCCN)C(=O)CN(C(=O)CN(C(=O)CNCCCCN)[C@@H](C)c1ccccc1)[C@@H](C)c1ccccc1)[C@@H](C)c1ccccc1)[C@@H](C)c1ccccc1)[C@@H](C)c1ccccc1)[C@@H](C)c1ccccc1 (H-[Nlys][Nspe][Nspe][Nlys][Nspe][Nspe][Nlys][Nspe][Nspe][Nlys][Nspe]-NH2) | 28.3 | 97.6 | 40.3 | 1.5 | 96.5 | 9.64
6.3 (≈ 11.7 µg/mL) | 3.1 (≈ 5.78 µg/mL) | C[C@@H](c1ccccc1)N(CC(N)=O)C(=O)CN(CCCCN)C(=O)CN(CCCCN)C(=O)CN(C(=O)CN(C(=O)CN(CCCCN)C(=O)CN(C(=O)CN(C(=O)CN(CCCCN)C(=O)CN(CCc1c[nH]c2ccccc12)C(=O)CN(CCc1c[nH]c2ccccc12)C(=O)CNCCCCN)[C@@H](C)c1ccccc1)[C@@H](C)c1ccccc1)[C@@H](C)c1ccccc1)[C@@H](C)c1ccccc1 | > 100 | 8.77 | 4.95 | 13.5 | 11.1 | 75.3
12.5 (≈ 26 µg/mL) | 3.1 (≈ 6.44 µg/mL) | C[C@@H](c1ccccc1)N(CC(=O)N(CCCCN)CC(=O)N(CC(=O)N(CC(=O)N(CCCCN)CC(=O)N(CC(=O)N(CC(=O)N(CCCCN)CC(=O)N(CCc1c[nH]c2ccccc12)CC(=O)N(CCc1c[nH]c2ccccc12)CC(N)=O)Cc1ccccc1)Cc1ccccc1)Cc1ccccc1)Cc1ccccc1)C(=O)CN(Cc1ccccc1)C(=O)CN(CCCCN)C(=O)[C@H](Cc1c[nH]cn1)NC(=O)CNC(=O)CN (H-GGH[Nlys][Nphe][Nspe][Nlys][Nphe][Nphe][Nlys][Nphe][Nphe][Nlys][Gly(N(CH2)2(3-indolyl))][Gly(N(CH2)2(3-indolyl))]-NH2) | > 100 | 23.9 | 12.7 | 1.6 | 40.6 | 20.6
6.3 (≈ 12 µg/mL) | 1.6 (≈ 3.04 µg/mL) | C[C@@H](c1ccccc1)N(CC(=O)N(CCCCN)CC(=O)N(CC(=O)N(CC(=O)N(CCCCN)CC(=O)N(CC(=O)N(CC(=O)N(CCCCN)CC(=O)N(CCc1c[nH]c2ccccc12)CC(=O)N(CCc1c[nH]c2ccccc12)CC(N)=O)[C@@H](C)c1ccccc1)[C@@H](C)c1ccccc1)[C@@H](C)c1ccccc1)[C@@H](C)c1ccccc1)C(=O)CN(C(=O)CNCCCCN)[C@@H](C)c1ccccc1 (H-[Nlys][Nspe][Nspe][Nlys][Nspe][Nspe][Nlys][Nspe][Nspe][Nlys][Gly(N(CH2)2(3-indolyl))][Gly(N(CH2)2(3-indolyl))]-NH2) | 63.8 | 50.7 | 29.9 | 1.2 | 69.4 | 7.7
6.3 (≈ 13.4 µg/mL) | 1.6 (≈ 3.39 µg/mL) | C[C@@H](c1ccccc1)N(CC(=O)N(CCCCN)CC(=O)N(CC(=O)N(CC(=O)N(CCCCN)CC(=O)N(CC(=O)N(CC(=O)N(CCCCN)CC(=O)N(CCc1c[nH]c2ccccc12)CC(=O)N(CCc1c[nH]c2ccccc12)C[C@H](N)C(=O)NCC(=O)N[C@@H](Cc1c[nH]cn1)C(N)=O)[C@@H](C)c1ccccc1)[C@@H](C)c1ccccc1)[C@@H](C)c1ccccc1)[C@@H](C)c1ccccc1)C(=O)CN(C(=O)CNCCCCN)[C@@H](C)c1ccccc1 (H-[Nlys][Nspe][Nspe][Nlys][Nspe][Nspe][Nlys][Nspe][Nspe][Nlys][Gly(N(CH2)2(3-indolyl))]-X3) | > 100 | 20.3 | 11.1 | 4 | 29 | 25.4
6.3 (≈ 11.1 µg/mL) | 3.1 (≈ 5.47 µg/mL) | C[C@@H](c1ccccc1)N(CC(=O)N(CCCCN)CC(=O)N(CC(=O)N(CC(=O)N(CCCCN)CC(=O)N(CC(=O)N(CC(N)=O)Cc1ccccc1)Cc1ccccc1)[C@@H](C)c1ccccc1)[C@@H](C)c1ccccc1)C(=O)CN(C(=O)CN(CCCCN)C(=O)CN(Cc1ccccc1)C(=O)CN(Cc1ccccc1)C(=O)CNCCCCN)[C@@H](C)c1ccccc1 (H-[Nlys][Nphe][Nphe][Nlys][Nspe][Nspe][Nlys][Nspe][Nspe][Nlys][Nphe][Nphe]-NH2) | 83 | 29 | 12.5 | 3.5 | 60.9 | 22.3
